Source: patent US8426559B2, “Injectable β-hairpin peptide hydrogel that kills methicillin-resistant Staphylococcus aureus” (University of Delaware, priority 2009, dated 2013)
Non-standard residues stand in square brackets, D forms with d. Residues, ends and D or L forms follow the SMILES beside them.

Columns and labels:
[1] = system: MSSA (methicillin-susceptible Staphylococcus aureus, ATCC 25923); assay: Antibacterial assay: bacteria introduced onto hydrogel-coated TCTP surface, proliferation by OD625nm; format: cell-based; details: 2 wt % hydrogel on TCTP, all bacterial cell loading densities, 24 h, compared to uncoated surface
Protocol: (§1) The antibacterial activity of MARG1 hydrogels was assessed via two distinct assays. In the first assay, bacteria were introduced to the surface of tissue culture treated polystyrene (TCTP) coated with a ˜1-2 mm layer of the gel and its ability to inhibit bacterial proliferation was assessed. This assay measures the ability of MARG1 gels to thwart new infection at a particular site. Here, gels were formed directly on the polystyrene surface without the aid of shear-thin delivery. In the second assay, MARG1 gels were shear-thin delivered via syringe to agar surfaces infected with bacteria, and the ability of the gel to kill bacteria on contact was measured. This assay simulates the introduction of the MARG1 gel via syringe to a bacterial contaminated surface, such as a wound.
Hydrogels for the antibacterial assays were prepared in separate wells of 96-well tissue culture-treated polystyrene plates (Costar 3595). […]
(§2) For each assay, 100 μL of bacteria-free TSB was introduced onto the surface of the hydrogels. […] After this, bacterial growth was monitored by measuring OD625nm of the liquid above the gel by adding 100 μL of bacteria-free TSB to the surfaces, gently mixing and transferring the supernatant to a cuvette. Corrected OD625nm values were calculated to correct for dilution and to normalize for scattering that occurs for each individual bacterial strain. […]

[2] = system: MRSA (methicillin-resistant Staphylococcus aureus, ATCC 33591); assay: as above; format: cell-based; details: 2 wt % hydrogel on TCTP, 24 hr at 37° C.
Protocol: as §1, with “This assay simulates the introduction of the MARG1 gel via syringe to a bacterial contaminated surface, such as a wound.” left out
The gels were incubated for 24 hr at 37° C., and bacterial proliferation was quantitated by light scattering as described in Salick, D. A.; Kretsinger, J. K.; Pochan, D. J.; Schneider, J. P. J. Am. […]
as §2

[3] = system: C3H10t1/2 mesenchymal stem cells; assay: Cytotoxicity of hydrogel towards mammalian cells, live/dead viability assay; format: cell-based, murine
Protocol: The confocal images show live/dead viability assays performed using murine C3H10t1/2 mesenchymal stem cells that had been cultured for 24 h on (A) a 2 wt % MARG1 hydrogel surface and on (B) a TCTP control surface. This cell line was chosen because these cells are sensitive to their environment and thus good indicators of a material's cytotoxic properties.
The images in FIGS. 5A,B are rendered in black and white, where the light areas represent cells that fluoresce green (live cells) and dark areas represent cells that fluoresce red (dead cells).
C3H10t1/2 mesenchymal stem cells (ATCC # CCL-226) were cultured using Dulbecco's Modified Eagle's Medium (DMEM, Sigma Aldrich, D6546) supplemented with 10% Fetal Bovine Serum, 5 mM L-Glutamine, 50 μg/mL Gentamicin at 37° C. in 5% CO2. Cells were cultured in T75 cell culture flasks. Cells were kept in culture for seven passages and used for cellular viability on passage number 7. For cell plating, cells were trypsinized and counted using a hemacytometer. The resultant cell suspension was introduced to the hydrogel and control surfaces such that a cell loading density of 30,000 cells/cm^2 was achieved. These samples were incubated for 24 hours at 37° C., 5% CO2. […]

| Molecule | MSSA proliferation on hydrogel-coated surface (OD) [1] | MRSA proliferation on hydrogel-coated surface (OD) ([2]; challenged with 2×10^8 CFU/dm^2 MRSA) | MRSA proliferation on hydrogel-coated surface (OD) ([2]; lower CFUs of MRSA) | Cytotoxicity towards mammalian cells ([3]; C3H10t1/2 cells cultured 24 h on 2 wt % hydrogel surface) | Viability of cells cultured on hydrogel surface versus TCTP control ([3]; C3H10t1/2 cells, 24 h, 2 wt % hydrogel surface) |
| --- | --- | --- | --- | --- | --- |
| VKVKVKVKV^DPPTKVKVKVKV-NH2 [MAX1] | can inhibit bacterial proliferation | uninhibited MRSA proliferation | inhibiting MRSA at lower CFUs |  |  |
| CC(C)[C@H](N)C(=O)N[C@@H](CCCCN)C(=O)N[C@H](C(=O)N[C@@H](CCCCN)C(=O)N[C@H](C(=O)N[C@@H](CCCNC(=N)N)C(=O)N[C@H](C(=O)N[C@@H](CCCCN)C(=O)N[C@H](C(=O)N1CCC[C@@H]1C(=O)N1CCC[C@H]1C(=O)N[C@H](C(=O)N[C@@H](CCCCN)C(=O)N[C@H](C(=O)N[C@@H](CCCCN)C(=O)N[C@H](C(=O)N[C@@H](CCCNC(=N)N)C(=O)N[C@H](C(=O)N[C@@H](CCCCN)C(=O)N[C@H](C(N)=O)C(C)C)C(C)C)C(C)C)C(C)C)[C@@H](C)O)C(C)C)C(C)C)C(C)C)C(C)C [MARG1, VKVKVRVKV^DPPTKVKVRVKV-NH2] (H-VKVKVRVKV[dP]PTKVKVRVKV-NH2) |  |  |  | non-cytotoxic | no significant difference |
